Source: ChEMBL document CHEMBL5038665, “Identification of the Benzoimidazole Compound as a Selective FLT3 Inhibitor by Cell-Based High-Throughput Screening of a Diversity Library” (J Med Chem, 2022)
Active and inactive are the calls of the source. No cut-off for these calls is given here.

How the values were obtained:
HL-60 = test: Antiproliferative activity against human HL-60 cells expressing wild type FLT3 assessed as reduction in cell viability measured after 72 hrs by MTS assay; type: functional, cell-based; conditions: HL-60, 72 h
[1] = Antiproliferative activity against human ML-1 cells expressing wild type FLT3 assessed as reduction in cell viability measured after 72 hrs by MTS assay; type: functional, cell-based; conditions: ML1, 72 h
MV4-11 = test: Antiproliferative activity against human MV4-11 cells harboring FLT3-ITD mutant assessed as reduction in cell viability measured after 72 hrs ny MTS assay; type: functional, cell-based; conditions: MV4-11, 72 h
[2] = Antiproliferative activity against mouse BaF3 cells expressing wild type FLT3 assessed as reduction in cell viability measured after 72 hrs by MTS assay; type: toxicity, cell-based
MOLM-13 = test: Antiproliferative activity against human MOLM-13 cells harboring FLT3-ITD mutant assessed as reduction in cell viability measured after 72 hrs by MTS assay; type: functional, cell-based; conditions: MOLM-13, 72 h
[3] = Antiproliferative activity against mouse Ba/F3 FLT3-ITD cells assessed as reduction in cell viability measured after 72 hrs by MTS assay; type: functional, cell-based
[4] = target: Mast/stem cell growth factor receptor Kit (Homo sapiens, UniProt P10721); test: Inhibition of KIT (unknown origin)
Sequence of Mast/stem cell growth factor receptor Kit (P10721 whole entry): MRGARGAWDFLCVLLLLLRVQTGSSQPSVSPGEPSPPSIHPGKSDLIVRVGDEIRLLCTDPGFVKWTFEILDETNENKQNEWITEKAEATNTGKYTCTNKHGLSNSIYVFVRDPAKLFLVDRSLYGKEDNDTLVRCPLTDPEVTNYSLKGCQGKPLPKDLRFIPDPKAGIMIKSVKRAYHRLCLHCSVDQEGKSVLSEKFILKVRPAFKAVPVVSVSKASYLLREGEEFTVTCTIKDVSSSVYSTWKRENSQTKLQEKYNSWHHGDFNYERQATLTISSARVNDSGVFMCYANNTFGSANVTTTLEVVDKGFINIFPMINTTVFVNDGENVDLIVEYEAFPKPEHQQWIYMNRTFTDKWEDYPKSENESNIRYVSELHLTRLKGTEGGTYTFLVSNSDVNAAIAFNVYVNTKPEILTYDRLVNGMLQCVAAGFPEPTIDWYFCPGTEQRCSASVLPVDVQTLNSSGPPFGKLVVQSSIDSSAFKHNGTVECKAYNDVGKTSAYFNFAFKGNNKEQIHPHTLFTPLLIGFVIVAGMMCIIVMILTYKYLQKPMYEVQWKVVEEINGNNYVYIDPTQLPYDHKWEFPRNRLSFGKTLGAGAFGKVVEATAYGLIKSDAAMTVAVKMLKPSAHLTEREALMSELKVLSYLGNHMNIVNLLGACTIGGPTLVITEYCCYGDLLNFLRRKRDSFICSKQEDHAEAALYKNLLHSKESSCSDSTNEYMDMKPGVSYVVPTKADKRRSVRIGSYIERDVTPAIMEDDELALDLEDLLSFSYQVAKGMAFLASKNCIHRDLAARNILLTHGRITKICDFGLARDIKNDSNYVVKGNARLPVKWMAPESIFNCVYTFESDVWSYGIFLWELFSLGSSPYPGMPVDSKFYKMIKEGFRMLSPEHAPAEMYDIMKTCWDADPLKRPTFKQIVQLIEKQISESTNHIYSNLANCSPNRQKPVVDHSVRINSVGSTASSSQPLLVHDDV

[5] = target: Fibroblast growth factor receptor 1 (Homo sapiens, UniProt P11362); test: Inhibition of FGFR1 (unknown origin)
Sequence of Fibroblast growth factor receptor 1 (P11362 whole entry): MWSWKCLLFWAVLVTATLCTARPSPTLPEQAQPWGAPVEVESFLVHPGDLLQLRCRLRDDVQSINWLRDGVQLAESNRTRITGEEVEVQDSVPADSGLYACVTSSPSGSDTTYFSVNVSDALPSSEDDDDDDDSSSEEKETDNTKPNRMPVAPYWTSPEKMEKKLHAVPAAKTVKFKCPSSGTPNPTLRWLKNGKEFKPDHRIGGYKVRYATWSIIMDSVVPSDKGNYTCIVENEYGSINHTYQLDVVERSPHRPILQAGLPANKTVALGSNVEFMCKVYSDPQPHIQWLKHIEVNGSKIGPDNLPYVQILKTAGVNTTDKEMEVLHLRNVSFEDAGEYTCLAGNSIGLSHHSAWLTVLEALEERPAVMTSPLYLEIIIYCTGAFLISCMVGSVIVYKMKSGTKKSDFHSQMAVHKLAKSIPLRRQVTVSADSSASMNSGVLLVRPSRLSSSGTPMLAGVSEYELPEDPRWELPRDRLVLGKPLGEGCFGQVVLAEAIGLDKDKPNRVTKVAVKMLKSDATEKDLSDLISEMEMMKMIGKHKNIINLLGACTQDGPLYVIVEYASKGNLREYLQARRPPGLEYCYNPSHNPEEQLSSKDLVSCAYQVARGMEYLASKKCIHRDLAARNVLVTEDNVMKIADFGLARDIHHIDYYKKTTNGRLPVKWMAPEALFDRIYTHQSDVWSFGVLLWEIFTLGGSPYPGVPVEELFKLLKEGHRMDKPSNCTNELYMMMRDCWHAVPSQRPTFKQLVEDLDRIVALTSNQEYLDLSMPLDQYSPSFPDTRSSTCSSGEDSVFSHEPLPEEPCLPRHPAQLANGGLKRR

[6] = target: Receptor-type tyrosine-protein kinase FLT3 (Homo sapiens) (UniProt P36888); test: Inhibition of FLT3-mediated signalling pathway in human MV4-11 cells assessed as inhibition of MAPK phosphorylation at 50 nM by western blot analysis; type: cell-based; conditions: TDE = time-dependent effect
[7] = target: Receptor-type tyrosine-protein kinase FLT3 (Homo sapiens) (UniProt P36888); test: Inhibition of FLT3-mediated signalling pathway in human MV4-11 cells assessed as inhibition of STAT5 phosphorylation at 50 nM by western blot analysis; type: cell-based; conditions: TDE = time-dependent effect
[8] = target: Receptor-type tyrosine-protein kinase FLT3 (Homo sapiens) (UniProt P36888); test: Inhibition of FLT3 phosphorylation in human MV4-11 cells assessed as reduction in phosphorylated FLT3 level measured after 12 hrs by western blot analysis; type: cell-based
[9] = target: T1, Receptor-type tyrosine-protein kinase FLT3 (Mus musculus) (UniProt Q00342); test: Inhibition of FLT3-mediated signalling pathway in mouse Ba/F3 FLT3-ITD cells assessed as inhibition of STAT5 phosphorylation at 50 nM by western blot analysis; type: cell-based
T1 sequence (whole entry): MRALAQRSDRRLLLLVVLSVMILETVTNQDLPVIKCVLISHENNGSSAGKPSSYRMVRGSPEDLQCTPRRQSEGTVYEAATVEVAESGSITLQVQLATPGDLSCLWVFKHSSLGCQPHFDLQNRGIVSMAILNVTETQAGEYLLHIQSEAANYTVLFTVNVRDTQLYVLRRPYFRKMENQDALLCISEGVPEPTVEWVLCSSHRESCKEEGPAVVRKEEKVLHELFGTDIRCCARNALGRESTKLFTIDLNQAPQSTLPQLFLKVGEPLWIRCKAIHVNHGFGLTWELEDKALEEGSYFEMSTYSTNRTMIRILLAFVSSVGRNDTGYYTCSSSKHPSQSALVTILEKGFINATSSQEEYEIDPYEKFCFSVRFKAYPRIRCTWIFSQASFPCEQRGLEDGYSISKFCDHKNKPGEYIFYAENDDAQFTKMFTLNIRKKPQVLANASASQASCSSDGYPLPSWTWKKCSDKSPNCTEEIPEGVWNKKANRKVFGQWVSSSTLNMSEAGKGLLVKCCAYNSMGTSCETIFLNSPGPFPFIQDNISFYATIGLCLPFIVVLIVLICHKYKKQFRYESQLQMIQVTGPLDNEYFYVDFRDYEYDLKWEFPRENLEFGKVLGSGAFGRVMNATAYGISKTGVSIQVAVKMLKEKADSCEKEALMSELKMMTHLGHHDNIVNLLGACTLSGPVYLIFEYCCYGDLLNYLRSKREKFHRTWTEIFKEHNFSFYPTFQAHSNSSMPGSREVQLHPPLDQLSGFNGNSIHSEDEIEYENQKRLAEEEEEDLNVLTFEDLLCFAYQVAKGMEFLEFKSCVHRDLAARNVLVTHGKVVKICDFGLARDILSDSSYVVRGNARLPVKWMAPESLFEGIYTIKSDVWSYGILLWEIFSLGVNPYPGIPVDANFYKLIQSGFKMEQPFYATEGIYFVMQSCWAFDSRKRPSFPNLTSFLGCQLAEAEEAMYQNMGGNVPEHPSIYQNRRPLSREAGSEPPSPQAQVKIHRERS

[10] = target: T1, Receptor-type tyrosine-protein kinase FLT3 (Mus musculus); test: Inhibition of FLT3-mediated signalling pathway in mouse Ba/F3 FLT3-ITD cells assessed as inhibition of MAPK phosphorylation at 50 nM by western blot analysis; type: cell-based; conditions: TDE = time-dependent effect
[11] = target: T1, Receptor-type tyrosine-protein kinase FLT3 (Mus musculus); test: Inhibition of FLT3 phosphorylation in mouse Ba/F3 FLT3-ITD cells assessed as reduction in phosphorylated FLT3 level at 0.3 to 100 nM by sandwich ELISA assay; type: cell-based; conditions: dose 0.3-100 nM
[12] = target: T1, Receptor-type tyrosine-protein kinase FLT3 (Mus musculus); test: Inhibition of FLT3 phosphorylation in mouse Ba/F3 FLT3-ITD cells assessed as reduction in phosphorylated FLT3 level measured after 12 hrs by western blot analysis; type: cell-based
[13] = target: Receptor-type tyrosine-protein kinase FLT3 (Homo sapiens) (UniProt P36888); test: Inhibition of FLT3 phosphorylation in human MOLM-13 cells assessed as reduction in phosphorylated FLT3 level at 0.3 to 100 nM by sandwich ELISA assay; type: cell-based; conditions: dose 0.3-100 nM
[14] = target: Serine/threonine-protein kinase B-raf (Homo sapiens, UniProt P15056); test: Inhibition of BRAF (unknown origin)
Sequence of Serine/threonine-protein kinase B-raf (P15056 whole entry): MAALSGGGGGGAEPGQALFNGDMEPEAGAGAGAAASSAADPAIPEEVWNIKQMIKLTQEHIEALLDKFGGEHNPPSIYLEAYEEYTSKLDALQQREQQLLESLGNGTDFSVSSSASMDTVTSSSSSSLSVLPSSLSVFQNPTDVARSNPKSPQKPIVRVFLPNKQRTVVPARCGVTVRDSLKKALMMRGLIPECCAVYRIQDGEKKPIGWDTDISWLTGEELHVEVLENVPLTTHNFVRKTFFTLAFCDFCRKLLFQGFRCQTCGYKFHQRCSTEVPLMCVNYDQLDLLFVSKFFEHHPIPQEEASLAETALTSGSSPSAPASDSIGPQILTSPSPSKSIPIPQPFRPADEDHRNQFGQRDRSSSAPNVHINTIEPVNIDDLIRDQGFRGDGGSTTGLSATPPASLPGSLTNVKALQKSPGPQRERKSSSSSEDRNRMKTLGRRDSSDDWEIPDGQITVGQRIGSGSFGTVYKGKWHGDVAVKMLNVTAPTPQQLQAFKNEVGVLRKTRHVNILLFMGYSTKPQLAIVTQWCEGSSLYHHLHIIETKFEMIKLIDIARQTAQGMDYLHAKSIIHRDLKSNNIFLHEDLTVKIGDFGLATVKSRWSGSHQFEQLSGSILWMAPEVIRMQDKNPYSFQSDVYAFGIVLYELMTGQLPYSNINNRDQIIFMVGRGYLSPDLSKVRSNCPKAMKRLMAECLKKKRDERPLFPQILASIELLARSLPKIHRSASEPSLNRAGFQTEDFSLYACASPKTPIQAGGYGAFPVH

[15] = target: T2, Receptor-type tyrosine-protein kinase FLT3 (Homo sapiens, UniProt P36888); test: Inhibition of FLT3 (unknown origin)
T2 sequence (P36888 whole entry): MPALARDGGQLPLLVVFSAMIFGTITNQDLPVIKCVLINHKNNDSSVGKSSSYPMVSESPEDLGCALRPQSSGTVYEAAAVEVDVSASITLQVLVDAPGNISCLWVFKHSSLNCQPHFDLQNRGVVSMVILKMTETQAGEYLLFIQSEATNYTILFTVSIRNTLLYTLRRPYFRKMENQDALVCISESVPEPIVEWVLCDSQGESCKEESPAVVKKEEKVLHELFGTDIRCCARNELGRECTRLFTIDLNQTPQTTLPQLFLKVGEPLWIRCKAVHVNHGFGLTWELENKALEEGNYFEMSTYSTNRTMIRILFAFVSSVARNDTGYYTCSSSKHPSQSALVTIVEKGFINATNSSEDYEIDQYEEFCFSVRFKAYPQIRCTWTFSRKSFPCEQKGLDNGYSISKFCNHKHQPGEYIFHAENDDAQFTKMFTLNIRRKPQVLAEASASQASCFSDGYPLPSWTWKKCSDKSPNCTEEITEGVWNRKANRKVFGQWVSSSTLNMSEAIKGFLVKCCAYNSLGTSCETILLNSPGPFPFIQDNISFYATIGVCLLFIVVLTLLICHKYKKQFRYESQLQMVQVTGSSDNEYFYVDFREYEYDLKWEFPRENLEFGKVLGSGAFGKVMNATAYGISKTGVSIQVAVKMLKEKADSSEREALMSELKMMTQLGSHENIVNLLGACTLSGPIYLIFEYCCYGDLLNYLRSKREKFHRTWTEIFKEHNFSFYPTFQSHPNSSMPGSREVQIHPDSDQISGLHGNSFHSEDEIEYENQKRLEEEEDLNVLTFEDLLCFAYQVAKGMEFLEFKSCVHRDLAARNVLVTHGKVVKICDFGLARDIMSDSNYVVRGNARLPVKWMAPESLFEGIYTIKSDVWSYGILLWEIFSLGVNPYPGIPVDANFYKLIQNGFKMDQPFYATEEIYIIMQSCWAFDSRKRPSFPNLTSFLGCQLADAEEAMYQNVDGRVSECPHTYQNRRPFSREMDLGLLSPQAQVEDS

[16] = target: Receptor-type tyrosine-protein kinase FLT3 (Homo sapiens) (UniProt P36888); test: Inhibition of FLT3 phosphorylation in human MV4-11 cells assessed as reduction in phosphorylated FLT3 level at 0.3 to 100 nM by sandwich ELISA assay; type: cell-based; conditions: dose 0.3-100 nM
[17] = target: Receptor-type tyrosine-protein kinase FLT3 (Homo sapiens, UniProt P36888, ITD); test: Inhibition of FLT3-ITD mutant (unknown origin)
Monocyte = test: Antiproliferative activity against human peripheral blood monocyte cells assessed as cell growth inhibition at 6 to 200 uM measured after 72 hrs by MTS assay; type: toxicity, cell-based; conditions: dose 6-200 µM

Compound	IC50 (HL-60) [nM]	IC50 [1] [nM]	IC50 (MV4-11) [nM]	IC50 at 72 h [2] [nM]	IC50 (MOLM-13) [nM]	IC50 [3] [nM]	further results
CNC(=O)c1cc(Oc2ccc(NC(=O)Nc3ccc(Cl)c(C(F)(F)F)c3)cc2)ccn1 [SORAFENIB]	500	500					
COc1ccc(CNc2ccc3c(c2)ncn3-c2ccccc2)cc1OCCO	> 50000	> 50000	197	> 400	78.2	75.4	
OCCOc1ccc(CNc2ccc3c(c2)ncn3-c2ccccc2)cc1OCCO	> 50000	> 50000	167	> 400	69.8	77.8	
COc1ccc(CNc2ccc3c(c2)ncn3-c2ccccc2)cc1OC	> 50000	> 50000	189	> 400	113	94.8	IC50 [4]: 451 nM; IC50 [5]: > 1000 nM; inhibition [6]: Tde; inhibition [7]: Tde; Activity [8]: 1 nM; inhibition [9]: Active; inhibition [10]: Tde; inhibition [11]: Active; Activity [12]: 10 nM; inhibition [13]: Active; IC50 [14]: > 1000 nM; IC50 [15]: 30 nM; inhibition [16]: Active; IC50 [17]: 90 nM; Activity (Monocyte): Not Active
